# Patent US20250302948A1, “DR5 Agonist and IAP Antagonist Combination Therapy” (Inhibrx Biosciences, Inc., priority 2022, published 2025)
# Assays:
# SW620 = experiment: CellTiter-Glo cell viability, 48 h (Examples 1, 2); assay type: cell-based; settings: Homo sapiens, SW-620
# From the text: (§1) Test Article Preparation for INBRX-109.
# (§2) Day 2—Test and Control Article Addition.
# (§3) Day 4—Viability Measurements. […] Data was graphed in GraphPad Prism 7.
# HT-29 = experiment: CellTiter-Glo cell viability, 48 h (Example 1); assay type: cell-based; settings: Homo sapiens
# From the text: as §1, §2, §3
# LS411N = experiment: CellTiter-Glo cell viability, 48 h (Example 1); assay type: cell-based; settings: Homo sapiens, LS-411N
# From the text: as §1, §2, §3
# SNU-C2B = experiment: CellTiter-Glo cell viability, 48 h (Example 1); assay type: cell-based; settings: Homo sapiens
# From the text: as §1, §2, §3
# NCI-H460 = experiment: Cytotoxicity on lung cancer cell lines, assay similar to Example 1 (Example 4); settings: Homo sapiens
# Method: (§4) Day 1-Cell Seeding. Monolayer cultures of each cell line were harvested for compound screening as detailed below. Culture medium was aspirated, and the cells were washed once with PBS. Accutase was added and flasks were incubated at 37° C. until cells became detached. An equal volume of complete medium was added to quench the Accutase, and the cells were then pipetted up and down several times to generate a homogenous single cell suspension. The density and viability of cells was determined by Trypan Blue using a TC20 Automated Cell Counter. Experimental cells were resuspended to a concentration of 0.17×10^6/mL in EMEM/10% FBS/Anti-Anti media (complete EMEM) and seeded in the inner wells of 384-well luminescence plates at 15 μL/well (2,500/well final). Each cell line was plated in duplicate on separate plates. […]
# (§5) Day 4—Viability Measurements. […] Any visible bubbles were removed with 100% ethanol vapor, then luminescence (RLU) was read on the Spectra Max M5e plate reader, using the 384-well opaque plate setting and SoftMaxPro v5.4 software with an integration time of 50 milliseconds. To determine the effect of test articles on cell viability, raw RLU values were exported to Excel and percent survival was calculated as a percentage of vehicle control (0.2% DMSO in EMEM), where the vehicle control is set at 100%. […]
# HCC2935 = experiment: as above; settings: Homo sapiens
# Method: as §4, §5
# NCI-H23 = experiment: as above; settings: Homo sapiens
# Method: as §4, §5
# NCI-H2452 = experiment: as above; settings: Homo sapiens
# Method: as §4, §5
# A549 = experiment: as above; settings: Homo sapiens
# Method: as §4, §5
# CAL-120 = experiment: Cytotoxicity on breast cancer cell lines, assay similar to Example 3 (Example 4); settings: Homo sapiens
# Method: (§6) Two duplicate plates were set up for day 0 reading (T0) and for reading at the end point (T48).
# (§7) To generate a 10× working dilution plate of the small molecules, a 1:100 dilution was performed from the 1000× plate into the appropriate media.
# (§8) Day 2—Compound Treatment. […] The plates were then incubated in a 37° C. humidity-controlled tissue culture incubator (5% CO2).
# (§9) 20 μL culture medium containing 1% DMSO and 50 μL CellTiter-Glo® Reagent was added to each well of the TO plates and the contents mixed, plate was incubated at room temperature for 30 min, and read on an En Vision Multi Label Reader.
# (§10) Day 4—Viability Measurements. 50 μL CellTiter-Glo® Reagent was added to each well of the T48 plates and the contents mixed, plate was incubated at room temperature for 30 min, and read on an EnVision Multi Label Reader. The formula for calculating percent survival is: % survival=(LumTest article−LumMedium control)/(LumNone treated−LumMedium control)×100%. Percent cytotoxicity was calculated by subtracting the % survival from 100.
# MX = experiment: as above
# Method: as §6, §7, §8, §9, §10
# BT-20 = experiment: as above; settings: Homo sapiens
# Method: as §6, §7, §8, §9, §10
# BT-549 = experiment: as above; settings: Homo sapiens
# Method: as §6, §7, §8, §9, §10
# HCC1937 = experiment: as above; settings: Homo sapiens
# Method: as §6, §7, §8, §9, §10
# SUM159PT = experiment: as above; settings: Homo sapiens, SUM-159-PT
# Method: (§11) Day 1—Cell Seeding. Monolayer cultures of each cancer cell line (see Table 7) were harvested during the logarithmic growth period. The density and viability of cells was determined by Trypan Blue using a Vi cell counter, cells were diluted in the appropriate growth media (see Table 7) and 90 μL cell suspensions were added to 96-well plates for compound screening as detailed below. Two duplicate plates were set up for day 0 reading (T0) and for reading at the end point (T48).
# as §7, §8, §9
# (§12) Day 4—Viability Measurements. 50 μL CellTiter-Glo® Reagent was added to each well of the T48 plates and the contents mixed, plate was incubated at room temperature for 30 min, and read on an EnVision Multi Label Reader. […] Percent cytotoxicity was calculated by subtracting the % survival from 100.
# HCC70 = experiment: as above; settings: Homo sapiens
# Method: as §11, §7, §8, §9, §12
# HCC1806 = experiment: as above; settings: Homo sapiens
# Method: as §11, §7, §8, §9, §12
# HCC1187 = experiment: as above; settings: Homo sapiens
# Method: as §11, §7, §8, §9, §12
# DU4475 = experiment: as above; settings: Homo sapiens, DU-4475
# Method: as §11, §7, §8, §9, §12
# CAL-51 = experiment: as above; settings: Homo sapiens
# Method: (§13) Day 1—Cell Seeding. […] Two duplicate plates were set up for day 0 reading (T0) and for reading at the end point (T48).
# as §7, §8, §9, §10
# HCC1395 = experiment: as above; settings: Homo sapiens
# Method: as §13, §7, §8, §9, §10
# HS 578T = experiment: as above; settings: Homo sapiens
# Method: as §13, §7, §8, §9, §10
# CAL-78 = experiment: Cytotoxicity on chondrosarcoma cell lines, assay similar to Example 1 (Example 4)
# Method: as §4, §5
# OUMS-27 = experiment: as above
# Method: as §4, §5
# SW1353 = experiment: as above; settings: Homo sapiens
# Method: as §4, §5
# H-EMC-SS = experiment: as above
# Method: as §4, §5
# NCI-N87 = experiment: Cytotoxicity on gastric cancer cell lines, assay similar to Example 1 (Example 4); settings: Homo sapiens
# Method: as §4
# (§14) Day 4—Viability Measurements. […] Any visible bubbles were removed with 100% ethanol vapor, then luminescence (RLU) was read on the Spectra Max M5e plate reader, using the 384-well opaque plate setting and SoftMaxPro v5.4 software with an integration time of 50 milliseconds. To determine the effect of test articles on cell viability, raw RLU values were exported to Excel and percent survival was calculated as a percentage of vehicle control (0.2% DMSO in EMEM), where the vehicle control is set at 100%.
# SNU-5 = experiment: as above; settings: Homo sapiens
# Method: as §4, §14
# SNU-1 = experiment: as above; settings: Homo sapiens, SNU1
# Method: as §4, §14
# AsPC-1 = experiment: Cytotoxicity on pancreatic cancer cell lines, assay similar to Example 1 (Example 4); settings: Homo sapiens, ASPC1
# Method: as §4, §14
# Panc-1 = experiment: as above; settings: Homo sapiens
# Method: as §4, §14
# MIA-PaCa-2 = experiment: as above; settings: Homo sapiens
# Method: as §4, §5
# SW1990 = experiment: as above; settings: Homo sapiens
# Method: as §4, §5
structure (smiles),measurement,setting,value
"CC[C@H](NC(=O)[C@H](C)NC)C(=O)N1C[C@@H](O)C[C@H]1Cc1c(-c2[nH]c3cc(F)ccc3c2C[C@@H]2C[C@H](O)CN2C(=O)[C@H](CC)NC(=O)[C@H](C)NC)[nH]c2cc(F)ccc12 [Birinapant, birinapant]",cytotoxicity at 5 µM,SW620,11.7%
same,cytotoxicity at 5 µM,HT-29,20.4%
same,cytotoxicity at 5 µM,LS411N,14.3%
same,cytotoxicity at 5 µM,SNU-C2B,71.1%
same,cytotoxicity at 2 µM,NCI-H460,6.55%
same,cytotoxicity at 2 µM,HCC2935,13.9%
same,cytotoxicity at 2 µM,NCI-H23,9.3%
same,cytotoxicity at 2 µM,NCI-H2452,6.11%
same,cytotoxicity at 2 µM,A549,11.3%
same,cytotoxicity at 3.16 µM,CAL-120,2.75%
same,cytotoxicity at 3.16 µM,MX,-7.11%
same,cytotoxicity at 3.16 µM,BT-20,6.51%
same,cytotoxicity at 3.16 µM,BT-549,6.85%
same,cytotoxicity at 3.16 µM,HCC1937,-2.77%
same,cytotoxicity at 3.16 µM,SUM159PT,-1.7%
same,cytotoxicity at 3.16 µM,HCC70,34%
same,cytotoxicity at 3.16 µM,HCC1806,5.17%
same,cytotoxicity at 3.16 µM,HCC1187,36%
same,cytotoxicity at 3.16 µM,DU4475,14.3%
same,cytotoxicity at 3.16 µM,CAL-51,2.35%
same,cytotoxicity at 3.16 µM,HCC1395,8.93%
same,cytotoxicity at 3.16 µM,HS 578T,12.7%
same,cytotoxicity at 2 µM,CAL-78,14%
same,cytotoxicity at 2 µM,OUMS-27,-0.15%
same,cytotoxicity at 2 µM,SW1353,0.1%
same,cytotoxicity at 2 µM,H-EMC-SS,31.1%
same,cytotoxicity at 2 µM,NCI-N87,1.82%
same,cytotoxicity at 2 µM,SNU-5,59.6%
same,cytotoxicity at 2 µM,SNU-1,7.62%
same,cytotoxicity at 2 µM,AsPC-1,9.46%
same,cytotoxicity at 2 µM,Panc-1,11.7%
same,cytotoxicity at 2 µM,MIA-PaCa-2,9.17%
same,cytotoxicity at 2 µM,SW1990,10.4%
